{"source": "patent US20120171133A1", "about": "“Modulation of Dynein in Skin” (AVON PRODUCTS, INC., priority 2010, published 2012)", "key": {"[1]": {"tested_on": "mRNA for the heavy chain DYNC1H1 of cytoplasmic dynein", "assay": "Dynein modulation assay (Panomics Quantigene multiplex, branched DNA) in keratinocytes", "format": "cell-based, human", "conditions": "for Effect (down-regulation scale) / Effect (up-regulation scale): keratinocytes (K), 24 hours", "description": "(§1) Normal human dermal fibroblasts or keratinocytes were cultured in 96-well tissue culture treated plates, containing appropriate culture medium. Stock solution of actives were made in an appropriate vehicle (water/Ethanol/Propylene glycol). Cells were treated with test material or respective vehicle control diluted in growth medium for 24 hours in a humidified 37° C. Incubator with 10% CO2. After incubation, growth medium from each plate was removed and 100 μL of lysis buffer was added to the wells and placed in 37° C. Incubator with 10% CO2 for 30 minutes. At the end of incubation, the cells are collected in freezer plates and placed in −80° C. freezer, until analysis. Changes in mRNA for Dynein after treatment were analyzed using Panomics Quantigene multiplex assay that employs a branched DNA technology, following manufacturer's instructions (Affymetrix, Calif.). Percent increase (up-regulation) or decrease (down-regulation) in mRNA for the heavy chain DYNC1H1 of cytoplasmic dynein was calculated by comparing the test results to the control. The percent up-regulation or down-regulation is converted to a scaled score as shown below in Table 3."}, "[2]": {"tested_on": "mRNA for the heavy chain DYNC1H1 of cytoplasmic dynein", "assay": "Dynein modulation assay (Panomics Quantigene multiplex, branched DNA) in fibroblasts", "format": "cell-based, human", "conditions": "fibroblasts (F), 24 hours", "description": "as §1"}}}
{"smiles": "CC/C=C\\CCCCCO", "note": "[cis-6-Nonenol]", "values": [{"measurement": "Effect (down-regulation scale)", "setting": "[1]; Conc. 0.0001%", "value": "− (21-40)"}]}
{"smiles": "CC(C)CN(Cc1ccc(OS(C)(=O)=O)cc1)S(=O)(=O)c1ccccc1", "note": "[Compound 1]", "values": [{"measurement": "Effect (up-regulation scale)", "setting": "[2]; Conc. 0.00005%", "value": "++ (41-60)"}]}
{"smiles": "CCOCCCNC(=O)c1coc(CN(CCCOCC)C(=O)c2cccc(Br)c2)n1", "note": "[Compound 6]", "values": [{"measurement": "Effect (down-regulation scale)", "setting": "[1]; Conc. 0.0005%", "value": "− (21-40)"}]}
{"smiles": "CCCCC(CC)C(=O)Nc1ccc(N2CCN(C(=O)C3CCCCC3)CC2)cc1", "note": "(stereo not shown) [Compound 7]", "values": [{"measurement": "Effect (down-regulation scale)", "setting": "[1]; Conc. 0.00005%", "value": "− (21-40)"}]}
{"smiles": "CC1=C(CC/C(C)=C/COC[C@@H](O)[C@@H](O)[C@H](O)[C@H](O)CO)C(C)(C)C(C)CC1", "note": "(stereo partly drawn) [Chalmicrin, 1-O—[(E)-3-Methyl-5-(2,5,6,6-tetramethyl-1-cyclohexen-1-yl)-2-pentenyl]-D-mannitol]", "values": [{"measurement": "Effect (up-regulation scale)", "setting": "[1]; Conc. 0.0001%", "value": "++++ (>81)"}]}
{"smiles": "CCOCCCNC(=O)c1coc(CN(CCCOCC)C(=O)Nc2ccccc2C)n1", "note": "[Compound 4]", "values": [{"measurement": "Effect (up-regulation scale)", "setting": "[2]; Conc. 0.00005%", "value": "++ (41-60)"}]}
{"smiles": "CCCCc1ccc(C(=O)Nc2cccc(C3NC(=S)N(C)C(C)=C3C(=O)OCCOC)c2)cc1", "note": "(stereo not shown) [Compound 3]", "values": [{"measurement": "Effect (up-regulation scale)", "setting": "[2]; Conc. 0.00005%", "value": "++ (41-60)"}]}
{"smiles": "CCOc1ccc(C(=O)CC(Sc2ccc(Cl)cc2)C(=O)O)cc1", "note": "(stereo not shown) [Compound 5]", "values": [{"measurement": "Effect (up-regulation scale)", "setting": "[2]; Conc. 0.00001%", "value": "++ (41-60)"}]}
{"smiles": "CCc1ccccc1NC(=O)N(Cc1ccc(OS(C)(=O)=O)cc1)CC(C)C", "note": "[Compound 8]", "values": [{"measurement": "Effect (down-regulation scale)", "setting": "[2]; Conc. 0.0005%", "value": "− (21-40)"}]}
{"smiles": "O=C(O)c1cc(Cl)ccc1O", "note": "[5-Chlorosalicylic acid]", "values": [{"measurement": "Effect (down-regulation scale)", "setting": "[1]; Conc. 0.1%", "value": "−− (41-60)"}, {"measurement": "reduction of mRNA for the heavy chain DYNC1H1 of cytoplasmic dynein", "setting": "[1]; keratinocytes, p=0.02", "value": 45.03, "unit": "%"}]}
{"smiles": "CCCCCCCC(=O)Nc1ccc(N2CCN(C(=O)CC(C)(C)C)CC2)cc1", "note": "[Compound 2]", "values": [{"measurement": "Effect (up-regulation scale)", "setting": "[1]; Conc. 0.0005%", "value": "++ (41-60)"}]}
{"smiles": "CCC=CCC=CCCO", "note": "[3,6-Nonadienol]", "values": [{"measurement": "Effect (down-regulation scale)", "setting": "[2]; Conc. 0.01%", "value": "− (21-40)"}]}
